Ki data for 13 compounds are collected here from BindingDB's records for doi:10.1016/0006-2952(81)90220-3 (Royal Postgraduate Medical School, 1981).

In general, Ki refers to a measure of affinity in units of concentration, obtained from inhibition or displacement. A higher Ki goes with weaker binding.

SMILES strings stand for the structures. Where “and” joins values, the source holds several entries; their conditions need not be identical. Identical values can stand only once.

This test deals with Prostacyclin receptor (Mus musculus, UniProt P43252).
Chain of Prostacyclin receptor (P43252 whole entry): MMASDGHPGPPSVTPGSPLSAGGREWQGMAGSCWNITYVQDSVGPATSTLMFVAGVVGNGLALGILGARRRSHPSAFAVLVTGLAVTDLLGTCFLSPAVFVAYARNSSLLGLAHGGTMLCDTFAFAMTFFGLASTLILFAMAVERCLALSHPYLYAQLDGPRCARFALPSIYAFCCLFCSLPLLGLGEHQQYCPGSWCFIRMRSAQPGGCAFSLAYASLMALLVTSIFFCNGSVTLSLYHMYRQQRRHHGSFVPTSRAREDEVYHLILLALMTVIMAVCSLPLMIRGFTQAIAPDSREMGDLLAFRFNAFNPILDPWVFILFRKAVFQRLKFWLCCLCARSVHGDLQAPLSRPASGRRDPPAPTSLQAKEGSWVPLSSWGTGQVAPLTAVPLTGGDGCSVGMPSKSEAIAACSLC
Take `CCCCCC(O)C=CC1C(O)CC(O)C1CCCCCCC(=O)O` (stereo not drawn) [NSC_5280939]: the Ki is above 10 µM.

With `O=C(O)CCC/C=C\C[C@H]1C(=O)C[C@@H](O)[C@@H]1/C=C/[C@@H](O)CCc1ccccc1` [17-PHENYL TRINOR PROSTAGLANDIN E2], the affinity, expressed as Ki, was 4.37 µM.

`CCCCCC(=O)CC[C@H]1[C@H](O)CC(=O)[C@@H]1C/C=C\CCCC(=O)O` [13,14-DIHYDRO-15-KETO PROSTAGLANDIN E2]: the Ki was 8.41 µM and > 10 µM.

For the compound `CCCCC[C@H](O)/C=C/[C@H]1[C@H](O)CC(=O)[C@@H]1C/C=C\CCCC(=O)O` [DINOPROSTONE], the inhibition constant (Ki) is above 10 µM.

`CCCCC[C@H](O)/C=C/C1[C@H](O)CC(=O)[C@H]1CCCCCCC(=O)O` (stereo partly drawn) [8-ISO PROSTAGLANDIN E1] gave a Ki of 0.735 µM.

Compound `CCCCC[C@H](O)CC[C@H]1[C@H](O)CC(=O)[C@@H]1CCCCCCC(=O)O` [CAS_19313-28-1] came in with a Ki of 0.315 µM.

`CCCCCC(O)C=CC1C(O)CC2OC(CCCCC(=O)O)CC21` (stereo not drawn) [CAS_162981] returned a Ki of 7.35 µM.

For the compound `CCCCC[C@H](O)/C=C/[C@@H]1[C@H]2C/C(=C\CCCC(=O)O)C[C@H]2C[C@H]1O`, the affinity corresponds to a Ki of 0.0166 µM.

For the compound `CCCCC[C@@H](O)/C=C/[C@H]1[C@H](O)CC(=O)[C@@H]1CCCCCCC(=O)O`, the Ki is 0.137 µM. This Ki lies about 8.3-fold higher than the previous one.

In turn, `CCCCC[C@H](O)/C=C/C1[C@H](O)C[C@H](O)[C@@H]1C/C=C\CCCC(=O)O` (stereo partly drawn) [(Z)-7-[(1R,3R,5S)-3,5-Dihydroxy-2-((E)-(S)-3-hydroxy-oct-1-enyl)-cyclopentyl]-hept-5-enoic acid] showed a Ki above 10 µM.

Consider `CCCCC[C@@H](O)/C=C/[C@H]1[C@H](O)CC(=O)[C@@H]1C/C=C\CCCC(=O)O`, for which the inhibition constant (Ki) is above 10 µM.

In turn, `CCCCC[C@H](O)/C=C/[C@@H]1[C@@H](CC(=O)CCC(=O)O)[C@@H](O)C[C@H]1O` [2,3-dinor-6-ketoprostaglandin F1alpha] came in with a Ki above 10 µM.

The compound `CCCCC[C@H](O)/C=C/[C@H]1[C@H](O)CC(=O)[C@@H]1C/C=C/CCCC(=O)O` [(E)-7-((1R,2R,3R)-3-hydroxy-2-((S,E)-3-hydroxyoct-1-enyl)-5-oxocyclopentyl)hept-5-enoic acid] had a Ki of 0.735 µM. This counts as sub-micromolar.
